Measured values taken from PubChem BioAssay (NCI).
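Dose response: 5 concentrations. Exposure: 48 h. Format: 96-well plates. Endpoint: linear interpolation; highest concentration if not reached. TGI: concentration producing complete growth inhibition.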

test system: SK-MEL-2 melanoma; assay: NCI-60 cell line screen, 48 h

Structure (SMILES) | TGI
CN(Cc1cnc2nc(N)nc(N)c2n1)c1ccc(C(=O)NC(CCC(=O)NCCC(P(=O)(O)O)P(=O)(O)O)C(=O)O)cc1 (stereo not given) | > 100 µM
O=C1NC(NNc2ccccc2)=N/C1=C\c1ccccc1O | > 100 µM
CCOC(=O)C1=C(C)N(Cc2ccc(Cl)cc2Cl)C2(O)C=CC(=O)C3C(=O)N(c4ccccc4)C(=O)C132 (stereo not given) | 4.27 µM
N=C1/C(=C/c2ccc(F)cc2)C(=O)N=C2SC=NN12 | > 100 µM
COC(=O)CC(C#N)(OP1(=O)OC(c2ccccc2)C(C)N1C)c1ccccc1 (stereo not given) | 95 µM
CN1CCN(C(=O)CCNC(=O)Cc2ccc(C(=O)c3ccccc3)cc2)CC1 | > 100 µM
O=c1cnn(C2OC(C(O)CO)C(O)C2O)c(=O)[nH]1 (stereo not given) | > 100 µM
COc1ccc(N2C(=O)C(=O)N(c3ccccc3[N+](=O)[O-])C2=S)cc1 | 46 µM
Nc1c2c(nc3cc(F)c(F)cc13)CCC2 | > 100 µM
CCCn1c2ccccc2c2ccc3c(c21)C(=O)C=CC3=O | > 10 µM
C=C(CCC/C(C)=C/C=C/[C@]1(C)CCCc2ccoc21)CC(=O)O | > 100 µM
CCOC(=O)c1c(NC(=O)c2cccs2)sc2c1CCCC2 | > 100 µM
CCCC[C@@H]1CCN2C[C@@H](O)[C@@H](O)[C@@H]2[C@H]1O | > 100 µM

test system: SK-MEL-28 melanoma; assay: NCI-60 cell line screen, 48 h

Structure (SMILES) | TGI
CN(Cc1cnc2nc(N)nc(N)c2n1)c1ccc(C(=O)NC(CCC(=O)NCCC(P(=O)(O)O)P(=O)(O)O)C(=O)O)cc1 (stereo not given) | > 100 µM
O=C1NC(NNc2ccccc2)=N/C1=C\c1ccccc1O | > 100 µM
CCOC(=O)C1=C(C)N(Cc2ccc(Cl)cc2Cl)C2(O)C=CC(=O)C3C(=O)N(c4ccccc4)C(=O)C132 (stereo not given) | 3.53 µM
N=C1/C(=C/c2ccc(F)cc2)C(=O)N=C2SC=NN12 | > 100 µM
COC(=O)CC(C#N)(OP1(=O)OC(c2ccccc2)C(C)N1C)c1ccccc1 (stereo not given) | > 100 µM
CN1CCN(C(=O)CCNC(=O)Cc2ccc(C(=O)c3ccccc3)cc2)CC1 | > 100 µM
O=c1cnn(C2OC(C(O)CO)C(O)C2O)c(=O)[nH]1 (stereo not given) | > 100 µM
COc1ccc(N2C(=O)C(=O)N(c3ccccc3[N+](=O)[O-])C2=S)cc1 | > 100 µM
Nc1c2c(nc3cc(F)c(F)cc13)CCC2 | > 100 µM
CCCn1c2ccccc2c2ccc3c(c21)C(=O)C=CC3=O | > 3.16 µM
C=C(CCC/C(C)=C/C=C/[C@]1(C)CCCc2ccoc21)CC(=O)O | > 100 µM
CCOC(=O)c1c(NC(=O)c2cccs2)sc2c1CCCC2 | > 100 µM
CCCC[C@@H]1CCN2C[C@@H](O)[C@@H](O)[C@@H]2[C@H]1O | > 100 µM

test system: SR leukemia; assay: NCI-60 cell line screen, 48 h

Structure (SMILES) | TGI
CN(Cc1cnc2nc(N)nc(N)c2n1)c1ccc(C(=O)NC(CCC(=O)NCCC(P(=O)(O)O)P(=O)(O)O)C(=O)O)cc1 (stereo not given) | > 100 µM
O=C1NC(NNc2ccccc2)=N/C1=C\c1ccccc1O | > 100 µM
CCOC(=O)C1=C(C)N(Cc2ccc(Cl)cc2Cl)C2(O)C=CC(=O)C3C(=O)N(c4ccccc4)C(=O)C132 (stereo not given) | 2.23 µM
N=C1/C(=C/c2ccc(F)cc2)C(=O)N=C2SC=NN12 | > 100 µM
COC(=O)CC(C#N)(OP1(=O)OC(c2ccccc2)C(C)N1C)c1ccccc1 (stereo not given) | 74.8 µM
CN1CCN(C(=O)CCNC(=O)Cc2ccc(C(=O)c3ccccc3)cc2)CC1 | > 100 µM
O=c1cnn(C2OC(C(O)CO)C(O)C2O)c(=O)[nH]1 (stereo not given) | > 100 µM
COc1ccc(N2C(=O)C(=O)N(c3ccccc3[N+](=O)[O-])C2=S)cc1 | > 100 µM
Nc1c2c(nc3cc(F)c(F)cc13)CCC2 | > 100 µM
CCCn1c2ccccc2c2ccc3c(c21)C(=O)C=CC3=O | 0.883 µM
C=C(CCC/C(C)=C/C=C/[C@]1(C)CCCc2ccoc21)CC(=O)O | > 100 µM
CCOC(=O)c1c(NC(=O)c2cccs2)sc2c1CCCC2 | > 100 µM
CCCC[C@@H]1CCN2C[C@@H](O)[C@@H](O)[C@@H]2[C@H]1O | > 100 µM

test system: T-47D breast; assay: NCI-60 cell line screen, 48 h

Structure (SMILES) | TGI
CN(Cc1cnc2nc(N)nc(N)c2n1)c1ccc(C(=O)NC(CCC(=O)NCCC(P(=O)(O)O)P(=O)(O)O)C(=O)O)cc1 (stereo not given) | > 100 µM
O=C1NC(NNc2ccccc2)=N/C1=C\c1ccccc1O | > 100 µM
CCOC(=O)C1=C(C)N(Cc2ccc(Cl)cc2Cl)C2(O)C=CC(=O)C3C(=O)N(c4ccccc4)C(=O)C132 (stereo not given) | 3.12 µM
N=C1/C(=C/c2ccc(F)cc2)C(=O)N=C2SC=NN12 | > 100 µM
COC(=O)CC(C#N)(OP1(=O)OC(c2ccccc2)C(C)N1C)c1ccccc1 (stereo not given) | 96.7 µM
CN1CCN(C(=O)CCNC(=O)Cc2ccc(C(=O)c3ccccc3)cc2)CC1 | > 100 µM
O=c1cnn(C2OC(C(O)CO)C(O)C2O)c(=O)[nH]1 (stereo not given) | > 100 µM
COc1ccc(N2C(=O)C(=O)N(c3ccccc3[N+](=O)[O-])C2=S)cc1 | 74.4 µM
Nc1c2c(nc3cc(F)c(F)cc13)CCC2 | > 100 µM
CCCn1c2ccccc2c2ccc3c(c21)C(=O)C=CC3=O | 5.44 µM
C=C(CCC/C(C)=C/C=C/[C@]1(C)CCCc2ccoc21)CC(=O)O | > 100 µM
CCOC(=O)c1c(NC(=O)c2cccs2)sc2c1CCCC2 | > 100 µM
CCCC[C@@H]1CCN2C[C@@H](O)[C@@H](O)[C@@H]2[C@H]1O | > 100 µM

test system: UACC-257 melanoma; assay: NCI-60 cell line screen, 48 h

Structure (SMILES) | TGI
CN(Cc1cnc2nc(N)nc(N)c2n1)c1ccc(C(=O)NC(CCC(=O)NCCC(P(=O)(O)O)P(=O)(O)O)C(=O)O)cc1 (stereo not given) | > 100 µM
O=C1NC(NNc2ccccc2)=N/C1=C\c1ccccc1O | > 100 µM
CCOC(=O)C1=C(C)N(Cc2ccc(Cl)cc2Cl)C2(O)C=CC(=O)C3C(=O)N(c4ccccc4)C(=O)C132 (stereo not given) | 5.81 µM
N=C1/C(=C/c2ccc(F)cc2)C(=O)N=C2SC=NN12 | > 100 µM
COC(=O)CC(C#N)(OP1(=O)OC(c2ccccc2)C(C)N1C)c1ccccc1 (stereo not given) | 46.4 µM
CN1CCN(C(=O)CCNC(=O)Cc2ccc(C(=O)c3ccccc3)cc2)CC1 | > 100 µM
O=c1cnn(C2OC(C(O)CO)C(O)C2O)c(=O)[nH]1 (stereo not given) | > 100 µM
COc1ccc(N2C(=O)C(=O)N(c3ccccc3[N+](=O)[O-])C2=S)cc1 | 47.3 µM
Nc1c2c(nc3cc(F)c(F)cc13)CCC2 | > 100 µM
CCCn1c2ccccc2c2ccc3c(c21)C(=O)C=CC3=O | 5.48 µM
C=C(CCC/C(C)=C/C=C/[C@]1(C)CCCc2ccoc21)CC(=O)O | > 100 µM
CCOC(=O)c1c(NC(=O)c2cccs2)sc2c1CCCC2 | > 100 µM
CCCC[C@@H]1CCN2C[C@@H](O)[C@@H](O)[C@@H]2[C@H]1O | > 100 µM
